The IC50 is the point on the concentration scale where inhibition reaches its midpoint. As a reminder, the inhibition is the percentage by which the read-out fell short of the control.

Where two headings read alike, the source gives them in different places.

The subject of data set [1] is LPS-induced TNFα production. Briefly: LPS antagonism assay: inhibition of LPS-induced TNFα production in THP-1 macrophages (ELISA). Format: cell-based, human. The settings on record: for LPS antagonistic activity: increasing concentrations, 10 ng/mL LPS 6 h; for inhibitory activity against LPS-induced TNFα production: concentration range of 0.1 nM to 10 μM. The method, then:
Synthetic compounds in solid form were dissolved in tetrahydrofuran (THF), aliquotted in small volumes, vacuum-centrifuged for 1 h and stored at −80° C. as dry compounds. For cellular treatment, an aliquot was dissolved in an appropriate volume of dimethylsulfoxide (DMSO) to give a concentrated working stock solution. This stock solution was further diluted in DMSO to give the desired concentration range. The final concentration of DMSO in the cell treatments was always maintained at 0.6%. Concentrations of Fmoc-containing compounds were verified by absorbance using an extinction coefficient of 7800 M^−1 cm^−1 at 301 nm.
THP-1 cells were obtained from ATCC (Manassas, Va.) and maintained in RPMI-1640 culture medium (HyClone, Logan, Utah) containing 2 mM L-glutamine, 25 mM HEPES, 1.5 g/L sodium bicarbonate, 10% fetal bovine serum (FBS) (HyClone), 50 units/mL penicillin, 50 μg/mL streptomycin (HyClone), and 50 μM β-mercaptoethanol at 37° C. in 5% CO2. For cellular assay, THP-1 monocytes were centrifuged and resuspended in a fresh growth medium to a cell density of 5×10^5 cells/mL Cells were then seeded in a 48-well plate and differentiated into adherent macrophages by treatment with 10 ng/mL phorbol 12-myristate 13-acetate (PMA) (Sigma) for 24 h at 37° C. in 5% CO2. The non-adherent cells were removed and the adherent cells were washed and replenished with reduced FBS growth medium. For the two wells set aside for calculating percent differentiation, the cells were washed with PBS (Hyclone) prior to removal by 0.25% trypsin-EDTA. Cells in a separate well were removed with 0.25% trypsin and counted under the microscope using a hemocytometer to determine the number of adherent macrophages. For the remaining wells, the cells were pre-incubated with LPS antagonist compounds at different concentrations for 30 min followed by addition of 10 ng/mL ultrapure LPS from E. coli K12 (InvivoGen, San Diego, Calif.) for 6 h at 37° C. in 5% CO2. 0.6% DMSO was used as a control. The cell medium was collected and stored at −20° C. until analyzed by ELISA for secreted TNFα production.

Another data set concerns THP-1 macrophages. Briefly: Cell viability (toxicity) by XTT reduction assay in THP-1 macrophages. The note with it: for toxicity (in words): THP-1 macrophages; for concentration at which toxic to the cells / cell viability compromised: XTT reduction assay. Format: cell-based, human. On the procedure: Cell viability was monitored using an XTT [2,3-bis(2-methoxy-4-nitro-5-sulfophenyl)-2H-tetrazolium-5-carboxanilide] assay. Macrophage metabolic activity was assessed by probing mitochondrial reduction of XTT (Sigma) which is a measure of viability (or toxicity) in response to the synthetic antagonists. Following 6 h treatment with antagonist compounds and LPS, the macrophages were washed with PBS (Hyclone) and incubated with XTT (0.33 mg/mL) and phenazine methosulfate (PMS) (8.3 μM) (Acros, Morris Plains, N.J.) to a final concentration of 0.33 mg/mL and 8.3 μM respectively for 2 h at 37° C. in 5% CO2. The cellular toxicity was then assessed in a platereader using absorbance of reduced XTT at 467 nm.
In general terms: Formazan colour is commonly taken as a measure of viable cells.

The next data set has as its system TNFα production. Briefly: Agonist activity: secreted TNFα in THP-1 macrophages in the absence of LPS. The data set is classed as cell-based, human. The note with it: for concentration range with agonist activity: FIG. 4 and FIG. 6; for agonist activity in the absence of LPS: tested in the absence of LPS.
The next data set relates to LPS. The note with it: Boons et al.; Shiozaki et al.; Peri et al.; cited from earlier work.
Where [2] appears, read: human macrophage cells (THP-1), 10 ng/mL LPS for 6 h, read-out: TNFα inhibition (IC50).
Where [3] appears, read: concentration at which toxicity is seen, human macrophage cells, XTT reduction.
[4] abbreviates: concentration range showing agonist activity, human macrophage cells.
Where [5] appears, read: human macrophage cells (THP-1), 10 ng/mL LPS for 6 h.

For the compound `CCCCCCCCCCCCCCO[C@H]1[C@@H](OC)O[C@H](C[N+](C)(C)C2CCCC2)[C@@H](O)[C@@H]1OCCCCCCCCCCCCCC` [Compound 4, reference compound], in data set [1] (LPS-induced TNFα production), the inhibition range fell in the range of 3 to 10 µM. Moreover, the half-inhibitory concentration (IC50) in data set [1] (setting [2]) stood at 6000 nM. For the same compound, in the data set on THP-1 macrophages (XTT reduction), the “toxicity (in words)” value was “toxic at high concentrations”. In the data set with THP-1 macrophages (setting [3]), this compound yielded a Toxicity of more than 30 µM. The “concentration range with agonist activity” value with TNFα production was more than 10 µM. In the data set with TNFα production (setting [4]), the Agonist activity fell in the range of 30 to 100 µM. The “antagonistic activity against LPS as reported in the literature” value with LPS is recorded as “provide antagonistic activity”.
Regarding `CO[C@H]1OC(COC(=O)CCC(=O)OC[C@H](NC(=O)OCC2c3ccccc3-c3ccccc32)C(=O)OC(C)(C)C)[C@@H](O)[C@H](OCc2ccccc2)C1OCc1ccccc1` (stereo partly drawn) [Compound 10, Methyl 2,3-di-O-benzyl-6-O-(4-((S)-2-(9-fluorenylmethoxyearbonyl)amino-3-(tert-butoxy)-3-oxopropyl)oxy-4-oxobutanoyl)-α-D-glycopyranoside], the “LPS antagonistic activity” value in data set [1] (THP-1 macrophages) was “do not display LPS antagonistic activity”. For the same compound, the “inhibitory activity against LPS-induced TNFα production” value (from here on “inhibitory activity”) in data set [1] is “no inhibitory activity”. Also, in data set [1] (setting [5]), the “TNFα inhibition (IC50)” value was “None observed”. The Toxicity entry in the data set with THP-1 macrophages (setting [3]) is “None observed”. In the data set with TNFα production (setting [4]), the Agonist activity result was “None observed”. Further, the “agonist activity in the absence of LPS” value in the data set with TNFα production is listed as “no agonist activity”.
In the case of `CO[C@H]1OC(COC(=O)CCC(=O)OC[C@H](NC(=O)OCC2c3ccccc3-c3ccccc32)C(=O)O)[C@@H](O)[C@H](OCc2ccccc2)C1OCc1ccccc1` (stereo partly drawn) [Compound 11, Methyl 2,3-di-O-benzyl-6-O-(4-((S)-2-(9-fluorenylmethoxyearbonyl)amino-2-carboxyethyl)oxy-4-oxobutanoyl)-α-D-glycopyranoside], in data set [1] (THP-1 macrophages), the “concentrations at which LPS-induced TNFα production is significantly inhibited” value is listed as “greater than 10 μM” and the “LPS antagonistic activity” value was “displays LPS antagonistic activity”. Moreover, in data set [1] (setting [2]), the IC50 came to 46000 nM. Moreover, in the data set on THP-1 macrophages (XTT reduction), the “toxicity (in words)” value is on record as “cell toxicity”. In addition, the “concentration at which toxic to the cells / cell viability compromised” value in the data set with THP-1 macrophages lay within 30 to 100 µM. The same compound gave a Toxicity in the data set with THP-1 macrophages (setting [3]) of more than 10 µM. The Agonist activity entry in the data set on TNFα production (setting [4]) is recorded as “None observed”.
Regarding `CO[C@H]1O[C@H](COC(=O)CCC(=O)OC[C@H](N)C(=O)OC(C)(C)C)[C@@H](O)[C@H](OCc2ccccc2)[C@H]1OCc1ccccc1` [Compound 12, Methyl 2,3-di-O-benzyl-6-O-(4-((S)-2-amino-3-(tert-butoxy)-3-oxopropyl)oxy-4-oxobutanoyl)-α-D-glycopyranoside], the “LPS antagonistic activity” value in data set [1] (THP-1 macrophages) is reported as “do not display LPS antagonistic activity”. The “inhibitory activity” value in data set [1] was “no inhibitory activity”. Moreover, the “TNFα inhibition (IC50)” value in data set [1] (setting [5]) was “None observed”. Further, the Toxicity entry in the data set on THP-1 macrophages (setting [3]) was “None observed”. Moreover, the Agonist activity result in the data set with TNFα production (setting [4]) is given as “None observed”. Besides, the “agonist activity in the absence of LPS” value in the data set with TNFα production is given as “no agonist activity”.
Turning to `CO[C@H]1O[C@H](COC(=O)CCC(=O)OC[C@H](N)C(=O)O)[C@@H](O)[C@H](OCc2ccccc2)[C@H]1OCc1ccccc1` [Compound 13, Methyl 2,3-di-O-benzyl-6-O-(4-((S)-2-amino-2-carboxyethyl)oxy-4-oxobutanoyl)-α-D-glycopyranoside], the “LPS antagonistic activity” value in data set [1] (THP-1 macrophages) is reported as “do not display LPS antagonistic activity”. Further, the “inhibitory activity” value in data set [1] was “no inhibitory activity”. Also, the “TNFα inhibition (IC50)” value in data set [1] (setting [5]) is listed as “None observed”. Further, the Toxicity result with THP-1 macrophages (setting [3]) was “None observed”. The Agonist activity result in the data set on TNFα production (setting [4]) was “None observed”. Also, the “agonist activity in the absence of LPS” value in the data set with TNFα production is reported as “no agonist activity”.
In turn, `CCCCCCCCCCCCCC(=O)O[C@H]1[C@@H](OC)O[C@H](COC(=O)CCC(=O)OC[C@H](NC(=O)OCC2c3ccccc3-c3ccccc32)C(=O)O)[C@@H](O)[C@@H]1OC(=O)CCCCCCCCCCCCC` [Compound 19, Methyl 6-O-(4-((S)-2-(9-fluorenylmethoxyearbonyl)amino-2-carboxyethyl)oxy-4-oxobutanoyl)-2,3-di-O-tetradecanoyl-α-D-glucopyranoside] gave an LPS response blocked in data set [1] (5 μM compound) of 80%. In data set [1] (THP-1 macrophages), the “concentration at which inhibition of LPS-induced TNFα begins” value was not below 550 nM and the “LPS antagonistic activity” value is recorded as “highly potent LPS antagonistic activity”. Also, in data set [1] (setting [2]), the 50% inhibitory concentration (IC50) was 3000 nM. The “concentration at which toxic to the cells / cell viability compromised” value with THP-1 macrophages was not below 10 µM. The Toxicity result in the data set on THP-1 macrophages (at 5 μM compound) is given as “no observable toxicity”. The compound also registered a Toxicity in the data set with THP-1 macrophages (setting [3]) of more than 10 µM. Moreover, the “concentration range with agonist activity” value in the data set with TNFα production fell in the range of 10 to 30 µM. The Agonist activity with TNFα production (setting [4]) was in the range of 10 to 30 µM.
Compound `CCCCCCCCCCCCCCO[C@H]1[C@@H](OC)O[C@H](COC(=O)CCC(=O)OC[C@H](NC(=O)OCC2c3ccccc3-c3ccccc32)C(=O)O)[C@@H](O)[C@@H]1OCCCCCCCCCCCCCC` [Compound 24, Methyl 6-O-(4-((S)-2-(9-fluorenylmethoxycarbonyl)amino-2-carboxyethyl)oxy-4-oxobutanoyl)-2,3-di-O-tetradecanyl-α-D-glucopyranoside] gave an inhibition at 1 µM in data set [1] (Homo sapiens, THP-1, 1 μM compound) of 70%. For the same compound, the inhibition at 40 µM in data set [1] (Homo sapiens, THP-1, 40 μM compound, read-out: overall inhibition of LPS-induced TNFα production) came to 90%. For the same compound, the half-maximal inhibitory concentration (IC50) was found to be 470 nM in data set [1] (Macrophage, LPS-induced TNFα production in human macrophages, FIG. 5, read-out: IC50, curve fitting of the inhibition data) and 500 nM in data set [1] (setting [2]). In data set [1] (THP-1 macrophages), the “LPS antagonistic activity” value was “significant LPS antagonistic activity”. The “toxicity (in words)” value with THP-1 macrophages (XTT reduction) is “without toxicity”. The Toxicity entry in the data set on THP-1 macrophages (setting [3]) is “None observed”; in the data set with THP-1 macrophages (tested 0.2 to 40 μM range), “no toxicity”. Also, the values for the Agonist activity result with TNFα production (setting [4]) and in the data set on TNFα production (tested 0.2 to 40 μM range) were “None observed” and “no toxicity or agonist activity”, respectively.
